From US8329674B2, “Film forming dental compositions and related methods” (3M Innovative Properties Company, priority 2007, dated 2012) come the findings set out here.

Common to all, as to assay type: cell-based
For experiment [1], the system named is Streptococcus mutans culture (ATCC 25175). As to the kind of experiment: Qualitative Biofilm Inhibition Test. On the set-up: key: +: refers to a visual assessment that a compound inhibited biofilm formation; −: refers to a visual assessment that either a compound did not inhibit biofilm formation, or that bacteria grew in the culture broth. The note with it: 1 weight percent compound; visible biofilm on disc after incubation and rinse. The method, then: During the procedure for the Quantitative Biofilm Inhibition Test, each cured disc was visually examined after it was removed from the broth (and rinsed with water) and before it was placed in a test tube containing five milliliters of 1M aqueous sodium hydroxide solution. The presence or absence of visible biofilm on a disc was noted. The Quantitative Biofilm Inhibition Test was carried out using five compounds of the dental composition and eleven comparative compounds, each at a concentration of 1 weight percent. […] In addition, the Qualitative Biofilm Inhibition Test was carried out for each Example and Comparative Example, in which each disc was visually examined before it was placed in the tube containing the aqueous sodium hydroxide solution.

For experiment [2] the test system is unchanged. The experiment can be described thus: Quantitative Biofilm Inhibition Test. The note with it: 1 weight percent compound, broth with 1.0 weight percent sucrose, approx. twenty hours at 37° C., average OD at 550 nm as percentage of control (100%); for activity at 1 % w/w: Streptococcus mutans, ATCC25175, 20 h, read-out: OD Ratio. How it is done:
Compounds of the dental compositions of the invention, and comparative compounds, were evaluated for biofilm inhibition activity. Composite dental restorative (available under the trade designation “FILTEK SUPREME” from 3M ESPE Dental Products, St. Paul, Minn.) was placed in a 15 millimeter by 1 millimeter stainless steel die. […] While the die containing the composite restorative was under compression, the composite was irradiated for two minutes using a Model ACE light source (available from SCHOTT North America, Inc., Auburn, N.Y.). The discs of cured composite restorative were then further cured using a Model UniXS light box (available from Heraeus Kulzer, Inc., Armonk, N.Y.) for 1.5 minutes.
The samples were incubated at 37° C. for approximately twenty hours, after which time the cured discs were removed from the broth and were gently rinsed with water. Each disc was placed in a separate test tube containing five milliliters of 1M aqueous sodium hydroxide solution, and each test tube was then sonicated for two minutes using a model SH1012-40-8 ultrasonic generator (manufactured by Branson Ultrasonics Corp., Danbury, Conn.) for two minutes to dislodge biofilm on the disc. The optical absorbance (optical density) of each aqueous sodium hydroxide solution was then measured at 550 nm using a Model ULTROSPEC III UV-visible spectrophotometer (manufactured by Pharmacia AB, Uppsala, Sweden). For each compound of the dental composition, five discs were separately incubated in broth and were evaluated separately to provide five optical density measurements. The average of the five optical density measurements was then calculated. […] The average optical density of the control or comparative samples was determined as described above. […] The ratio was considered to be proportional to the average amount of biofilm on the five cured discs, i.e., relatively low average optical density ratio was considered to be indicative of inhibition of biofilm formation. The ratio for the control was 100%.
The Quantitative Biofilm Inhibition Test was carried out using five compounds of the dental composition and eleven comparative compounds, each at a concentration of 1 weight percent. […] In addition, the Qualitative Biofilm Inhibition Test was carried out for each Example and Comparative Example, in which each disc was visually examined before it was placed in the tube containing the aqueous sodium hydroxide solution.

For the next experiment, the system named is Streptococcus mutans. As to the kind of experiment: Bacterial Kill Rate Test. The method, then: Compounds of the dental compositions of the invention were evaluated for extent of bacterial kill in culture. Overnight cultures of Streptococcus mutans in brain heart infusion broth (10^6 CFU/mL) was mixed with a 0.1 weight percent, 0.5 weight percent, or 1.0 weight percent aqueous solution of each compound of the dental composition. After a period of 2, 5, or 10 minutes, 1.0 mL of the mixture was transferred via pipette into a first tube containing 9.0 mL of Letheen broth to provide a 10^−1 dilution. The contents of the tube were mixed using a vortex mixer. A 1.0 mL aliquot of this sample was transferred via pipette into a second tube containing 9.0 mL of Letheen broth to provide a 10^−2 dilution. A 0.1 mL aliquot of each dilution was plated and spread in duplicate on sheep blood agar in Petri dishes, using a “hockey stick” applicator, to provide 10^−2 and 10^−3 dilutions, respectively, on each plate. The plates were incubated at 37° C. for a period of 48 to 72 hours, and then the colony forming units were counted. The CFU counts were compared and the log reduction in the counts were calculated. In Table 3, the bacteria count reduction (log reduction) is the difference between the log of the initial bacteria count and the log of the bacteria count after 2, 5, and 10 minutes.

For experiment [3], the system named is Streptococcus mutans culture (ATCC 25175). The experiment can be described thus: Biofilm Inhibition Test: concentration of compound to inhibit biofilm formation at varied sucrose. Particulars: tested at 50 or 150 millimolar. The method, then:
Compounds of the dental compositions of the invention, and comparative compounds, were evaluated for biofilm inhibition activity. Composite dental restorative (available under the trade designation “FILTEK SUPREME” from 3M ESPE Dental Products, St. Paul, Minn.) was placed in a 15 millimeter by 1 millimeter stainless steel die. The open ends of the die were then covered with polyester film and the die was subjected to a pressure of 68.95 MPa using a hydraulic press. While the die containing the composite restorative was under compression, the composite was irradiated for two minutes using a Model ACE light source (available from SCHOTT North America, Inc., Auburn, N.Y.). The discs of cured composite restorative were then further cured using a Model UniXS light box (available from Heraeus Kulzer, Inc., Armonk, N.Y.) for 1.5 minutes.
The cured discs of composite restorative were then immersed in ten milliliters of Streptococcus mutans culture (ATCC 25175; 10^6 CFU/mL) prepared in brain heart infusion broth that contained 1.0 weight percent sucrose and 1 weight percent of a compound of the dental composition. The samples were incubated at 37° C. for approximately twenty hours, after which time the cured discs were removed from the broth and were gently rinsed with water. Each disc was placed in a separate test tube containing five milliliters of 1M aqueous sodium hydroxide solution, and each test tube was then sonicated for two minutes using a model SH1012-40-8 ultrasonic generator (manufactured by Branson Ultrasonics Corp., Danbury, Conn.) for two minutes to dislodge biofilm on the disc. The optical absorbance (optical density) of each aqueous sodium hydroxide solution was then measured at 550 nm using a Model ULTROSPEC III UV-visible spectrophotometer (manufactured by Pharmacia AB, Uppsala, Sweden). For each compound of the dental composition, five discs were separately incubated in broth and were evaluated separately to provide five optical density measurements. The average of the five optical density measurements was then calculated. […] The average optical density of the control or comparative samples was determined as described above. The ratio, expressed as a percentage, of the average optical density for each compound sample to the average optical density for a control sample was calculated by dividing the average optical density for each compound sample by the average optical density for a control sample and multiplying the result by one hundred. The ratio was considered to be proportional to the average amount of biofilm on the five cured discs, i.e., relatively low average optical density ratio was considered to be indicative of inhibition of biofilm formation. The ratio for the control was 100%.
During the procedure for the Quantitative Biofilm Inhibition Test, each cured disc was visually examined after it was removed from the broth (and rinsed with water) and before it was placed in a test tube containing five milliliters of 1M aqueous sodium hydroxide solution. The presence or absence of visible biofilm on a disc was noted.
The Biofilm Inhibition Test was carried out, using four compounds of the dental composition, in broth containing 1.0, 2.5, or 5.0 weight percent sucrose and the exemplary compounds of the dental composition at a concentration of either 50 millimolar or 150 millimolar. In Table 2, the millimolar concentration of compound that inhibited biofilm formation is given for each concentration of sucrose. An entry of “n/t” means that the compound was not tested in broth containing the corresponding concentration of sucrose.

Where a name gives a salt, the structure may show the parent alone.

On to `N[C@H]1C(O)O[C@H](CO)[C@@H](O)[C@@H]1O` (stereo partly drawn) [Glucosamine Sulfate, D-glucosamine], for which, in experiment [1], the “Visual Assessment” value is on record as “+”. For the same compound, the “OD Ratio” value in experiment [2] was determined as 2%. Moreover, the “Bacteria Count Reduction (log reduction)” value with Streptococcus mutans (0.1 wt % compound, 2 min.) amounted to 0.95 log reduction; in the experiment on Streptococcus mutans (0.1 wt % compound, 5 min.), 0.75 log reduction; in the experiment with Streptococcus mutans (0.1 wt % compound, 10 min.), 0.87 log reduction; in the experiment on Streptococcus mutans (0.5 wt % compound, 2 min.), 0.78 log reduction; with Streptococcus mutans (0.5 wt % compound, 5 min.), 0.80 log reduction; with Streptococcus mutans (0.5 wt % compound, 10 min.), 0.81 log reduction. Besides, the “Bacteria Count Reduction (log reduction)” value was 0.95 log reduction in the experiment with Streptococcus mutans (1.0 wt % compound, 2 min.); 0.89 log reduction in the experiment on Streptococcus mutans (1.0 wt % compound, 5 min.); 0.97 log reduction in the experiment with Streptococcus mutans (1.0 wt % compound, 10 min.). The “Concentration of Compound to Inhibit Biofilm Formation” value in experiment [3] (1 wt% Sucrose) turned out to be 50 mM; in experiment [3] (5 wt% Sucrose) it was 150 mM.
In the case of `N[C@H]1C(O)O[C@H](COP(=O)(O)O)[C@@H](O)[C@@H]1O` (stereo partly drawn) [Glucosamine-6-Phosphate, D-glucosamine-6-phosphate], the “Visual Assessment” value in experiment [1] was “+”. Besides, the activity at 1 % w/w in experiment [2] was 2%. Moreover, the “Bacteria Count Reduction (log reduction)” value in the experiment with Streptococcus mutans (0.1 wt % compound, 2 min.) is on record as 0.99 log reduction; in the experiment on Streptococcus mutans (0.1 wt % compound, 5 min.) it was 0.88 log reduction; with Streptococcus mutans (0.1 wt % compound, 10 min.) it was 1.06 log reduction; in the experiment with Streptococcus mutans (0.5 wt % compound, 2 min.) it was 0.95 log reduction; in the experiment with Streptococcus mutans (0.5 wt % compound, 5 min.), 1.11 log reduction; in the experiment on Streptococcus mutans (0.5 wt % compound, 10 min.), 1.23 log reduction. In addition, the “Bacteria Count Reduction (log reduction)” value with Streptococcus mutans (1.0 wt % compound, 2 min.) was determined as 1.12 log reduction; in the experiment on Streptococcus mutans (1.0 wt % compound, 5 min.), 1.41 log reduction; in the experiment on Streptococcus mutans (1.0 wt % compound, 10 min.), 2.09 log reduction. For the same compound, in experiment [3] (1 wt% Sucrose), the “Concentration of Compound to Inhibit Biofilm Formation” value came to 50 mM.
As to `N[C@@H]1C(O)O[C@H](CO)[C@@H](O)[C@@H]1O` (stereo partly drawn) [Mannosamine HCl, D-mannosamine], the “Visual Assessment” value in experiment [1] is on record as “+”. Further, in experiment [2], the activity at 1 % w/w was 0%. The “Bacteria Count Reduction (log reduction)” value in the experiment with Streptococcus mutans (0.1 wt % compound, 2 min.) came to 1.01 log reduction; with Streptococcus mutans (0.1 wt % compound, 5 min.) it was 0.82 log reduction; in the experiment with Streptococcus mutans (0.1 wt % compound, 10 min.), 0.95 log reduction; in the experiment on Streptococcus mutans (0.5 wt % compound, 2 min.), 0.96 log reduction; in the experiment on Streptococcus mutans (0.5 wt % compound, 5 min.) it was 0.98 log reduction; in the experiment on Streptococcus mutans (0.5 wt % compound, 10 min.) it was 1.00 log reduction. The “Bacteria Count Reduction (log reduction)” value in the experiment on Streptococcus mutans (1.0 wt % compound, 2 min.) is 0.96 log reduction; with Streptococcus mutans (1.0 wt % compound, 5 min.) it was 1.09 log reduction; with Streptococcus mutans (1.0 wt % compound, 10 min.) it was 0.99 log reduction. Moreover, the “Concentration of Compound to Inhibit Biofilm Formation” value in experiment [3] (1 wt% Sucrose), in experiment [3] (2.5 wt% Sucrose) and in experiment [3] (5 wt% Sucrose) was 50 mM throughout.
